Experimental findings from US20260209249A1, “NOVEL TRICYCLIC COMPOUND AS KRAS G12D INHIBITOR, AND USE THEREOF” (SK Biopharmaceuticals Co., priority 2022, published 2026) are described below.

SMILES strings stand for the structures.

In experiment [1] the target is T1, GppNHp-KRAS G12D mutant protein (Homo sapiens, UniProt P01116, G12D).
T1 construct: purchased Daegu Gyeongbuk Medical Innovation Foundation (DGMIF), made to order
The experiment in a line: Differential scanning fluorimetry (DSF) binding affinity to GppNHp-KRAS G12D mutant protein. Conditions: DSF thermal shift, 10 μM compound, 4 μg KRAS protein, 50 mM HEPES (pH 7.5). As for the experimental part:
(§1) Test Example 1: Measurement of Binding Affinity to KRAS G12D Mutant Protein The binding affinities of the compounds according to one embodiment of the present application to the KRAS G12D mutant protein were evaluated using differential scanning fluorimetry (DSF). Differential scanning fluorimetry (DSF) is a method used to study the stability of a protein upon binding to a compound. The experiment can be performed using a real-time PCR (RT-PCR) instrument, and is commonly employed as a screening technique for small-molecule compounds targeting specific proteins. As the temperature increases, folded proteins begin to unfold, during which a hydrophobic dye such as SYPRO Orange binds to the exposed hydrophobic regions of the protein, resulting in a measurable increase in fluorescence intensity (maximum absorption at 470 nm and maximum emission at 570 nm). Protein-compound binding is determined by the difference in the melting temperature (Tm) of the protein in the presence of the compound compared to the Tm in the absence of the compound, expressed as ΔTm. The binding affinity to the KRAS G12D mutant protein was measured using the Protein Thermal Shift Dye kit (#4461146, Applied Biosystems). The GDP-KRAS G12D mutant protein and GppNHp-KRAS G12D mutant protein used in the experiment were recombinant proteins synthesized by the Daegu Gyeongbuk Medical Innovation Foundation (DGMIF) upon request. The analysis of binding between the compound and the KRAS G12D mutant protein was performed according to the following reaction recipe: each test sample contained 4 μg of KRAS protein, 10 μM of the compound, and 2×SYPRO Orange dye. For the GDP-KRAS G12D protein samples, the buffer provided with the Protein Thermal Shift Dye kit was used, while for the GppNHp-KRAS G12D protein samples, 50 mM HEPES (pH 7.5) buffer was used. For the protein-compound binding reaction, the compound was added to the KRAS G12D mutant protein and reacted at room temperature for 30 minutes, followed by the addition of 2×SYPRO Orange dye. The temperature was increased to 25° C.-99° C. (0.05° C./s) using QuantStudiol RT-PCR instrument (Applied Biosystems), and fluorescence was measured using a ROX reporter with filters of 580±10 nm (excitation)/623±14 nm (emission). The measurements obtained at a compound concentration of 10 μM were analyzed using the Protein Thermal Shift Software program (version v1.4, Thermo Fisher Scientific), and the ΔTm (° C.) values, which indicate the binding affinity of the compound to the KRAS G12D mutant protein, were calculated. The DSF measurement results for the compounds according to one embodiment of the present application with respect to the KRAS G12D mutant protein are shown in Table 2.

Experiment [2] deals with T2, GDP-KRAS G12D mutant protein (Homo sapiens, UniProt P01116, G12D).
T2 construct: purchased Daegu Gyeongbuk Medical Innovation Foundation (DGMIF), made to order
The experiment is described as follows: Differential scanning fluorimetry (DSF) binding affinity to GDP-KRAS G12D mutant protein. Conditions: DSF thermal shift, 10 μM compound, 4 μg KRAS protein. As for the experimental part:
as §1
In general terms: In DSF a fluorescence change marks the thermal transition of the protein.

On to `C#Cc1c(F)ccc2cc(O)cc(-c3c(F)c4nc(OC[C@@]56CCCN5CC(=C(F)F)C6)nc(N5CC6CCC(C5)N6)c4c4cc(C)oc34)c12` [Example 66, 4-(1-((1R,5S)-3,8-diazabicyclo[3.2.1]octan-3-yl)-3-(((S)-2-(difluoromethylene)tetrahydro-1H-pyrrolizin-7a(5H)-yl)methoxy)-5-fluoro-8-methylfuro[3,2-n]quinazolin-6-yl)-5-ethynyl-6-fluoronaphthalen-2-ol], for which, in experiment [1], the “GppNHp-KRAS G12D (ΔTmD, ° C.)” value is 9.45 °C. In experiment [2], the “GDP-KRAS G12D (ΔTmD, ° C.)” value amounted to 14.49 °C.

On to `C#Cc1c(F)ccc2cc(O)cc(-c3c(F)c4nc(N5CC(N(C)C)C5)nc(N5C[C@H]6CC[C@@H](C5)N6)c4c4cn(C)nc34)c12` [Example 72, 4-(9-((1R,5S)-3,8-diazabicyclo[3.2.1]octan-3-yl)-7-(3-(dimethylamino)azetidin-1-yl)-5-fluoro-2-methyl-2H-pyrazolo[4,3-n]quinazolin-4-yl)-5-ethynyl-6-fluoronaphthalen-2-ol], for which, in experiment [1], the “GppNHp-KRAS G12D (ΔTmD, ° C.)” value worked out at 0.00 °C. Besides, in experiment [2], the “GDP-KRAS G12D (ΔTmD, ° C.)” value was −0.29 °C.

As for `C#Cc1c(F)ccc2cc(N)cc(-c3cc4nc(OCC5(CN6CCC7(CC6)CC7(F)F)CC5)nc(N5C[C@H]6CC[C@@H](C5)N6)c4c4cn(C)nc34)c12` [Example 76, 4-(9-((1 R,5S)-3,8-diazabicyclo[3.2.1]octan-3-yl)-7-((1-((1,1-difluoro-6-azaspiro[2.5]octan-6-yl)methyl)cyclopropyl)methoxy)-2-methyl-2H-pyrazolo[4,3-f]quinazolin-4-yl)-5-ethynyl-6-fluoronaphthalen-2-amine], the “GppNHp-KRAS G12D (ΔTmD, ° C.)” value in experiment [1] came out at 1.47 °C. Besides, in experiment [2], the “GDP-KRAS G12D (ΔTmD, ° C.)” value amounted to 5.17 °C.

For `C#Cc1c(F)ccc2cccc(-c3cc4nc(OC[C@@]56CCCN5C/C(=C\F)C6)nc(N5C[C@H]6CC[C@@H](C5)N6)c4c4cn(C)nc34)c12` [Example 78, 9-((1 R,5S)-3,8-diazabicyclo[3.2.1]octan-3-yl)-4-(8-ethynyl-7-fluoronaphthalen-1-yl)-7-(((S,Z)-2-(fluoromethylene)tetrahydro-1H-pyrrolizin-7a(5H)-yl)methoxy)-2-methyl-2H-pyrazolo[4,3-n]quinazoline], the “GppNHp-KRAS G12D (ΔTmD, ° C.)” value in experiment [1] came to 1.17 °C. For the same molecule, the “GDP-KRAS G12D (ΔTmD, ° C.)” value in experiment [2] is 5.46 °C.

For the molecule `C#Cc1c(F)ccc2cccc(-c3c(F)c4nc(OC[C@@]56CCCN5C[C@H](F)C6)nc(N5C[C@H]6CC[C@@H](C5)N6)c4c4cn(C)nc34)c12` [Example 82, 9-((1 R,5S)-3,8-diazabicyclo[3.2.1]octan-3-yl)-4-(8-ethynyl-7-fluoronaphthalen-1-yl)-5-fluoro-7-(((2R,7aS)-2-fluorotetrahydro-1H-pyrrolizin-7a(5H)-yl)methoxy)-2-methyl-2H-pyrazolo[4,3-n]quinazoline], in experiment [1], the “GppNHp-KRAS G12D (ΔTmD, ° C.)” value came to 3.26 °C. Moreover, in experiment [2], the “GDP-KRAS G12D (ΔTmD, ° C.)” value was 7.52 °C.

Turning to `Cn1cc2c(n1)c(-c1cc(O)cc3ccc(F)c(F)c13)cc1nc(OC[C@@]34CCCN3C/C(=C\F)C4)nc(N3C[C@H]4CC[C@@H](C3)N4)c12` [Example 84, 4-(9-((1R,5S)-3,8-diazabicyclo[3.2.1]octan-3-yl)-7-(((S,Z)-2-(fluoromethylene)tetrahydro-1H-pyrrolizin-7a(5H)-yl)methoxy)-2-methyl-2H-pyrazolo[4,3-f]quinazolin-4-yl)-5,6-difluoronaphthalen-2-ol], in experiment [1], the “GppNHp-KRAS G12D (ΔTmD, ° C.)” value was determined as 4.13 °C. Also, in experiment [2], the “GDP-KRAS G12D (ΔTmD, ° C.)” value turned out to be 8.13 °C.

Regarding `C#Cc1c(F)ccc2cc(O)cc(-c3c(F)c4nc(OC[C@@]56CCCN5CC(=C(F)F)C6)nc(N5CC6CCC(C5)N6)c4c4cn(C)nc34)c12` [Example 91, 4-(9-((1R,5S)-3,8-diazabicyclo[3.2.1]octan-3-yl)-7-(((S)-2-(difluoromethylene)tetrahydro-1H-pyrrolizin-7a(5H)-yl)methoxy)-5-fluoro-2-methyl-2H-pyrazolo[4,3-n]quinazolin-4-yl)-5-ethynyl-6-fluoronaphthalen-2-ol], the “GppNHp-KRAS G12D (ΔTmD, ° C.)” value in experiment [1] is −0.45 °C. Also, the “GDP-KRAS G12D (ΔTmD, ° C.)” value in experiment [2] is −0.16 °C.

Take `C#Cc1c(F)ccc2cc(O)cc(-c3c(F)c4nc(OC[C@@]56CCCN5CC(=C(F)F)C6)nc(N5CC6CCC(C5)N6)c4c4cn(C)nc34)c12` [Example 92, 4-(9-((1R,5S)-3,8-diazabicyclo[3.2.1]octan-3-yl)-7-(((S)-2-(difluoromethylene)tetrahydro-1H-pyrrolizin-7a(5H)-yl)methoxy)-5-fluoro-2-methyl-2H-pyrazolo[4,3-]quinazolin-4-yl)-5-ethynyl-6-fluoronaphthalen-2-ol]: in experiment [1], the “GppNHp-KRAS G12D (ΔTmD, ° C.)” value turned out to be 13.02 °C. For the same molecule, in experiment [2], the “GDP-KRAS G12D (ΔTmD, ° C.)” value was found to be 17.61 °C.

Regarding `C#Cc1c(F)ccc2cc(O)cc(-c3c(F)c4nc(OC[C@@]56CCCN5C[C@H](F)C6)nc(N5[C@@H]6CC[C@H]5CNC6)c4c4cn(C)nc34)c12` [Example 103, 4-(9-((1 R,5S)-3,8-diazabicyclo[3.2.1]octan-8-yl)-5-fluoro-7-(((2R,7aS)-2-fluorotetrahydro-1H-pyrrolizin-7a(5H)-yl)methoxy)-2-methyl-2H-pyrazolo[4,3-n]quinazolin-4-yl)-5-ethynyl-6-fluoronaphthalen-2-ol], in experiment [1], the “GppNHp-KRAS G12D (ΔTmD, ° C.)” value was 11.59 °C. In experiment [2], the “GDP-KRAS G12D (ΔTmD, ° C.)” value was 14.80 °C.

As to `C#Cc1c(F)ccc2cc(O)cc(-c3cc4nc(OC[C@@]56CCCN5CC(=C(F)F)C6)nc(N5[C@@H]6CC[C@H]5CNC6)c4n4ccnc34)c12` [Example 106, 4-(1-((1 R,5S)-3,8-diazabicyclo[3.2.1]octan-8-yl)-3-(((S)-2-(difluoromethylene)tetrahydro-1H-pyrrolizin-7a(5H)-yl)methoxy)imidazo[1′,2′:1,6]pyrido[3,2-d]pyrimidin-6-yl)-5-ethynyl-6-fluoronaphthalen-2-ol], in experiment [1], the “GppNHp-KRAS G12D (ΔTmD, ° C.)” value came out at 6.65 °C. Moreover, the “GDP-KRAS G12D (ΔTmD, ° C.)” value in experiment [2] was found to be 10.21 °C.

For the molecule `CCc1c(F)ccc2cc(O)cc(-c3cc4nc(OC[C@@]56CCCN5CC(=C(F)F)C6)nc(N5[C@@H]6CC[C@H]5CNC6)c4n4ccnc34)c12` [Example 107, 4-(1-((1 R,5S)-3,8-diazabicyclo[3.2.1]octan-8-yl)-3-(((S)-2-(difluoromethylene)tetrahydro-1H-pyrrolizin-7a(5H)-yl)methoxy)imidazo[1′,2′:1,6]pyrido[3,2-d]pyrimidin-6-yl)-5-ethyl-6-fluoronaphthalen-2-ol], the “GppNHp-KRAS G12D (ΔTmD, ° C.)” value in experiment [1] was determined as 4.32 °C. Further, in experiment [2], the “GDP-KRAS G12D (ΔTmD, ° C.)” value came out at 8.91 °C.

Take `C#Cc1c(F)ccc2cc(N)cc(-c3cc4nc(OC[C@@]56CCCN5CC(=C(F)F)C6)nc(N5[C@@H]6CC[C@H]5CNC6)c4n4ccnc34)c12` [Example 108, 4-(1-((1 R,5S)-3,8-diazabicyclo[3.2.1]octan-8-yl)-3-(((S)-2-(difluoromethylene)tetrahydro-1H-pyrrolizin-7a(5H)-yl)methoxy)imidazo[1′,2′:1,6]pyrido[3,2-d]pyrimidin-6-yl)-5-ethynyl-6-fluoronaphthalen-2-amine]: the “GppNHp-KRAS G12D (ΔTmD, ° C.)” value in experiment [1] stood at 5.36 °C. Moreover, the “GDP-KRAS G12D (ΔTmD, ° C.)” value in experiment [2] worked out at 8.47 °C.

For `CCc1c(F)ccc2cc(O)cc(-c3cc4nc(OC[C@@]56CCCN5CC(=C(F)F)C6)nc(N5C[C@H]6CC[C@@H](C5)N6)c4n4ccnc34)c12` [Example 109, 4-(1-((1 R,5S)-3,8-diazabicyclo[3.2.1]octan-3-yl)-3-(((S)-2-(difluoromethylene)tetrahydro-1H-pyrrolizin-7a(5H)-yl)methoxy)imidazo[1′,2′:1,6]pyrido[3,2-d]pyrimidin-6-yl)-5-ethyl-6-fluoronaphthalen-2-ol], in experiment [1], the “GppNHp-KRAS G12D (ΔTmD, ° C.)” value was 4.28 °C. The “GDP-KRAS G12D (ΔTmD, ° C.)” value in experiment [2] was 10.51 °C.
